Data as given in US8586538B2, “Method of treating a patient suffering from a bleeding disorder comprising administering an antibody against the A3-C1 of FVIII” (Stichting Sanquin Bloedvoorziening, priority 2002, dated 2013).
Where “and” joins values, the source holds several entries; their conditions need not be identical. Equal entries are not always repeated. No end group written: not given here.

Experiments:
[1] = target: T1, interaction between FVIII light chain and LRP cluster II (Homo sapiens, UniProt Q07954); test: Solid-phase competition: FVIII light chain binding to immobilized LRP cluster II; details: FVIII light chain 25 nM; peptide 0-1 mM; 2 h at 37° C
T1 construct: Recombinant LRP clusters II or IV (1 pmol/well) were adsorbed onto microtiter wells; made in house; host or cells: LRP cluster II: BHK cells; FVIII light chain: plasma-derived
T1 sequence (Q07954 803-1182): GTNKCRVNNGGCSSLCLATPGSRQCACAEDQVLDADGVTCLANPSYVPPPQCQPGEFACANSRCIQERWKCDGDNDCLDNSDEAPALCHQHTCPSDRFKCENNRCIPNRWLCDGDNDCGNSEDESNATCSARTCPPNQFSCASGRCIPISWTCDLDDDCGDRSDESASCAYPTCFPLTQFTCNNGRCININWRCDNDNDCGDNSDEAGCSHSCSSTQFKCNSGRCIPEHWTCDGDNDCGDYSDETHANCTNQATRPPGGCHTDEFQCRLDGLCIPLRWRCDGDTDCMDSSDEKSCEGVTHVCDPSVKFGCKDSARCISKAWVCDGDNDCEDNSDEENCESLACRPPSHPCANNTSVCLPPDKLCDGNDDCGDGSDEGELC
Method: FIG. 4. Effect of scFv antibody fragments on the interaction between FVIII light chain and LRP. A, FVIII light chain (LCh) (25 nM) was incubated with immobilized LRP cluster II (1 pmol/well) in a volume of 50 μl in 150 mM NaCl, 5 mM CaCl2, 1% (w/v) HSA, 0.1% Tween® 20, and 50 mM Tris (pH 7.4) in the presence of various concentrations (0-100 nM) of scFv KM41 (closed circles) or scFv KM36 (open circles) for 2 h at 37° C. After washing with the same buffer, bound FVIII light chain was quantified by incubation with peroxidase-conjugated anti-FVIII antibody CLB-CAg 12 for 15 min at 37° C. Residual binding is expressed as the percentage of binding in the absence of competitor and is corrected for nonspecific binding (less than 5% relative to binding to LRP cluster II-immobilized wells). Data represent the mean±S.D. of three experiments. B, FVIII light chain (50 nM) was incubated with immobilized LRP (16 fmol/mm^2) as described in the legend of FIG. 1. Binding was assessed in the absence (curve 1) or in the presence of increasing concentrations of scFv KM41 (20, 60, 300, 500 nM, curves 2-5, respectively). Complexes were allowed to form for 30 min before SPR analysis.
FIG. 5. Effect of scFv KM33 on the interaction between FVIII light chain and LRP. FVIII light chain (LCh) (25 nM) was incubated with immobilized LRP cluster II (1 pmol/well) in a volume of 50 μl in 150 mM NaCl, 5 mM CaCl2, 1% (w/v) HSA, 0.1% Tween® 20, and 50 mM Tris (pH 7.4) in the presence of various concentrations (0-30 nM) of scFv KM36 (open circles) or scFv KM33 (closed circles) for 2 h at 37° C. After washing with the same buffer, bound FVIII Light chain was quantified by incubation with peroxidase-conjugated anti-FVIII antibody CLB-CAg 12 for 15 min at 37° C. Residual binding is expressed as the percentage of binding in the absence of competitor and is corrected for nonspecific binding (less than 5% relative to binding to cluster-coated wells). Data represent the mean±S.D. of three experiments.
Recombinant LRP clusters II or IV (1 pmol/well) were adsorbed onto microtiter wells in 50 mM NaHCO3 (pH 9.8) in a volume of 50 μl for 16 h at 4° C. Wells were blocked with 2% (w/v) HSA, 150 mM NaCl, 5 mM CaCl2, and 50 mM Tris (pH 7.4) in a volume of 200 μl for 1 h at 37° C. After three rapid washes (less than 5 seconds each) with 150 mM NaCl, 5 mM CaCl2, 0.1% (v/v) Tween® 20, and 50 mM Tris (pH 7.4), FVIII light chain or its derivatives were incubated at various concentrations in a volume of 50 μl in a buffer containing 150 mM NaCl, 5 mM CaCl2, 1% (w/v) HSA, 0.1% (v/v) Tween® 20, and 50 mM Tris (pH 7.4) for 2 h. at 37° C. Bound ligand was detected by incubating with peroxidase-conjugated monoclonal antibody CLB-CAg 12 in the same buffer for 15 min at 37° C. […] In competition experiments, FVIII light chain (25 nM) was incubated with wells containing immobilized LRP clusters, either in the presence or absence of serial dilutions of competitor in a volume of 50 μl for 2 h at 37° C. Residual FVIII binding was detected as described above. Data were corrected for binding to empty microtiter wells, which was less than 5% relative to binding to wells containing immobilized LRP clusters.
(Note to Table II: Effect of FVIII a3-A3-C1 fragment derived synthetic peptides on the interaction between FVIII light chain and LRP cluster II. FVIII light chain (25 nM) was incubated with immobilized LRP cluster II (1 pmol/well) in a volume of 50 μl in 150 mM NaCl, 5 mM CaCl2, 1% (w/v) HSA, 0.1% Tween® 20, and 50 mM Tris (pH 7.4) in the presence or absence of various concentrations of synthetic peptide (0-1 mM) for 2 h at 37° C. After washing with the same buffer, bound FVIII light chain was quantified by incubation with peroxidase-conjugated anti-FVIII antibody CLB-CAg 12 for 15 min at 37° C. Half-maximum inhibition constants (IC50) represent the mean values±S.D. of three experiments.)

[2] = target: FVIIIa-FIXa complex (Homo sapiens, UniProt P00451+P00740); details: by interfering with the assembly of the FVIIIa-FIXa complex; cited from earlier work
[3] = target: T2, interaction between FVIII light chain and LRP cluster IV (Homo sapiens, UniProt P00451); test: Solid-phase competition: FVIII light chain binding to immobilized LRP cluster IV; details: FVIII light chain 25 nM; competitor 0-600 nM
T2 construct: made in house; host or cells: LRP cluster IV: BHK cells; FVIII light chain: plasma-derived
T2 sequence (P00451 1668-2351 limits assumed): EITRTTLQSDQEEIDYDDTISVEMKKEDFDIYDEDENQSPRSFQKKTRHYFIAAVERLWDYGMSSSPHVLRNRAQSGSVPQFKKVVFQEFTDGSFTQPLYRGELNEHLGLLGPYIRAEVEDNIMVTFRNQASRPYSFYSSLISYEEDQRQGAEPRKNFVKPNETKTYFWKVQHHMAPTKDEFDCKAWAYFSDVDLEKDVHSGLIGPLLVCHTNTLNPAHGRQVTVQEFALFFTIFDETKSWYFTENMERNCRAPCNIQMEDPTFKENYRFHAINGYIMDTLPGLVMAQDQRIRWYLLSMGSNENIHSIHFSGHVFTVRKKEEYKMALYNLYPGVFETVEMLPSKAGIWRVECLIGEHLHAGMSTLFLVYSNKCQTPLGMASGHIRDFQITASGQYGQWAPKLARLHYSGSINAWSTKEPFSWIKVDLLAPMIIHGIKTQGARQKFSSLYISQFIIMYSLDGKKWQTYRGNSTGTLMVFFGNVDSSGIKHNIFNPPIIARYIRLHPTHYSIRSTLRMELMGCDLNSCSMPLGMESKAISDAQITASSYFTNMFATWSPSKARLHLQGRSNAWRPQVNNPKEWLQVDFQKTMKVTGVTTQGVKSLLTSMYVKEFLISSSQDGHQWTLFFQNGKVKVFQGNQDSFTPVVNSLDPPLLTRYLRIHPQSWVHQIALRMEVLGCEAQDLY
Method: FIG. 2. Binding of FVIII light chain to recombinant LRP fragments. FVIII light chain (LCh) (25 nM) was incubated with immobilized LRP cluster IV (1 pmol/well) in a volume of 50 μl in 150 mM NaCl, 5 mM CaCl2, 1% (w/v) HSA, 0.1% Tween® 20, and 50 mM Tris (pH 7.4) in the presence or absence of various concentrations of recombinant LRP cluster II (0-600 nM) for 2 h at 37° C. After washing with the same buffer, bound FVIII light chain was quantified by incubation with peroxidase-conjugated anti-FVIII antibody CLB-CAg 12 for 15 min at 37° C. Residual binding is expressed as the percentage of binding in the absence of competitor and is corrected for nonspecific binding (less than 5% relative to binding to LRP cluster II-immobilized wells). Inset, serial dilutions of FVIII light chain were incubated with immobilized LRP cluster II (1 pmol/well) in a volume of 50 μl in 150 mM NaCl, 5 mM CaCl2, 1% (w/v) HSA, 0.1% Tween® 20, and 50 mM Tris (pH 7.4) for 2 h at 37° C. After washing with the same buffer, bound FVIII light chain was quantfied as described above. […]
Recombinant LRP clusters II or IV (1 pmol/well) were adsorbed onto microtiter wells in 50 mM NaHCO3 (pH 9.8) in a volume of 50 μl for 16 h at 4° C. […] Bound ligand was detected by incubating with peroxidase-conjugated monoclonal antibody CLB-CAg 12 in the same buffer for 15 min at 37° C. […] Residual FVIII binding was detected as described above. […]

Chain of FVIIIa-FIXa complex (P00740 47-191 limits assumed, one chain of several): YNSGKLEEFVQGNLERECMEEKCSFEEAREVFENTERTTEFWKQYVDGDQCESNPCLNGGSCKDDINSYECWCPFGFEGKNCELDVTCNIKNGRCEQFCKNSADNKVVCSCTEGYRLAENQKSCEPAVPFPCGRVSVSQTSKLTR

Substance | IC50 [1] | Inhibition of FVIII light chain binding to immobilized LRP cluster IV [3] | Inhibition of FVIII procoagulant activity [2]
HMAPTKDEFDCKA [Residues 1822-1834] | > 1000 µM | – | –
KNFVKPNETKTYFWK [Residues 1804-1818] | ~1.9 µM and 1.9 µM | – | effective inhibitors
LRP cluster II: recombinant LRP ligand binding cluster II expressed in BHK cells | – | dose-dependent inhibition | –

Second part, led by results:

IC50 [1] | Inhibition of FVIII light chain binding to immobilized LRP cluster IV [3] | Substance | Inhibition of FVIII procoagulant activity [2]
> 1000 µM | – | EDPTFKENYRFH [Residues 1908-1919] | –
> 1000 µM | – | KLARLHYSG [Residues 2049-2057] | –
